Test results published in ChEMBL document CHEMBL1201862, “PubChem BioAssay data set” (2004).
Calls of active or inactive are those of the source.

Key:
[1] = biological target: Luciferin 4-monooxygenase (Photinus pyralis, UniProt P08659); assay: firefly luciferase enzyme inhibitors, dose response, biochemical, luminescence (AID 1891)
[2] = Luminescence Cell-Based Dose Confirmation HTS to Identify Inhibitors of Platelet Dense Granule Release. [Related pubchem assays: 1663 (Primary HTS), 1678 (Summary of Project)]; format: functional
[3] = biological target: T1, High affinity choline transporter 1 (Homo sapiens, UniProt Q9GZV3); assay: CHT inhibitors, dose response, cell-based, 5-point CRC, membrane potential dye (AID 504840); format: functional
T1 sequence (Q9GZV3 whole entry): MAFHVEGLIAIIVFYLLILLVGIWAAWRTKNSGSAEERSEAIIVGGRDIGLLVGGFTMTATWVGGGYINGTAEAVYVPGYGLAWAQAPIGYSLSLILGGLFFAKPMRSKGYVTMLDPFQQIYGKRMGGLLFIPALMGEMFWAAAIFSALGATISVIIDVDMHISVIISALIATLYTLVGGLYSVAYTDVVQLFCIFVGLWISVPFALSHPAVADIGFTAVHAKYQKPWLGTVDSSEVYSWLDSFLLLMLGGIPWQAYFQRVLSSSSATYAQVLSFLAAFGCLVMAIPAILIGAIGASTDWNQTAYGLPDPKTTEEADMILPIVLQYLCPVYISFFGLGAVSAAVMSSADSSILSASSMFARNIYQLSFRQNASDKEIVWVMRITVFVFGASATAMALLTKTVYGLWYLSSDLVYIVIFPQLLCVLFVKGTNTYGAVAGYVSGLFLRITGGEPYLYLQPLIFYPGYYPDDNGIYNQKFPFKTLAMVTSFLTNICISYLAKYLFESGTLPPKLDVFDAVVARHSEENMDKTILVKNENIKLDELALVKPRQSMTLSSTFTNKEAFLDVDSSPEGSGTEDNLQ

[4] = biological target: Heat shock protein HSP 90-alpha (Homo sapiens, UniProt P07900); format: functional, organism-based
BJ [5] = assay: cytotoxicity toward BJ-TERT fibroblasts, dose response, cell-based, RAS-independent, luminescence (AID 1933); format: functional; details: Homo sapiens
BJ [6] = assay: cells; format: functional, cell-based; details: Homo sapiens
BJ [7] = assay: cytotoxicity toward BJ-TERT-LT-ST fibroblasts, dose response, cell-based, RAS-independent, luminescence (AID 1935); format: functional; details: Homo sapiens;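 note: BJ fibroblasts immortalized with TERT plus LT and ST oncogenes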
[8] = cytotoxicity toward DRD oncogenic fibroblasts, dose response, cell-based, non-viral oncogenic, luminescence (AID 1934); format: functional; details: Homo sapiens
[9] = biological target: Glyceraldehyde-3-phosphate dehydrogenase (Homo sapiens, UniProt P04406)
[10] = biological target: T2, Short transient receptor potential channel 4 (Mus musculus, UniProt Q9QUQ5); assay: mouse TRPC4 channel inhibitors, dose response, cell-based, HEK293 TRPC4/mu-opioid, Fluo-4 calcium (AID 434942); format: functional;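 note: potency of inhibitors blocking the TRPC4 calcium response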
T2 sequence (Q9QUQ5 whole entry): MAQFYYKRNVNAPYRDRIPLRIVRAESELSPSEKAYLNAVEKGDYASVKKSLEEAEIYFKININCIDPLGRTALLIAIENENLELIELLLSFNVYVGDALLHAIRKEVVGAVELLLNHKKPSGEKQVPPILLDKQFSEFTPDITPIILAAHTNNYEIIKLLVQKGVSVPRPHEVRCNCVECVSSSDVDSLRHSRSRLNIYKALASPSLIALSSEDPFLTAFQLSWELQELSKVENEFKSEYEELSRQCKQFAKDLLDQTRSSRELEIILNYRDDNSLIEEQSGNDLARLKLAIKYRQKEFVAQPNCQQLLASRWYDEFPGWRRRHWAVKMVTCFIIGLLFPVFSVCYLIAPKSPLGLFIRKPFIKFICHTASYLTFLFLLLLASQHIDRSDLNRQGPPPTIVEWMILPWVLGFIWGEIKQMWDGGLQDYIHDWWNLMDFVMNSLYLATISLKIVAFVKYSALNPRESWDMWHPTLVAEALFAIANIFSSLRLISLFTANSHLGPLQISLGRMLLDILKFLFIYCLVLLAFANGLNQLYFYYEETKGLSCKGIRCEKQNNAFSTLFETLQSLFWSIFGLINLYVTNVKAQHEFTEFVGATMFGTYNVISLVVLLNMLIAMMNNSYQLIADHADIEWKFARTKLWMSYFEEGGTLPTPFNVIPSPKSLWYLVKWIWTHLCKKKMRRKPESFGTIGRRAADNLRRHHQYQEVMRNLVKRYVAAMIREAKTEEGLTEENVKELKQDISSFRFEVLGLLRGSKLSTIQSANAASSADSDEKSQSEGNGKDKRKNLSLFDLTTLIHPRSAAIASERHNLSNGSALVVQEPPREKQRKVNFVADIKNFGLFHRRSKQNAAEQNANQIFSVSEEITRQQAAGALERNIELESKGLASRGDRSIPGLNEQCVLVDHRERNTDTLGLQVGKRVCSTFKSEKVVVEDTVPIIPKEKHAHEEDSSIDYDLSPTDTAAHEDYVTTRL

[11] = biological target: T3, Corticotropin-releasing factor receptor 2/Corticotropin-releasing factor-binding protein (Homo sapiens, UniProt P24387+Q13324); assay: Dose Response confirmation of uHTS hits for small molecule antagonists of the CRF-binding protein and CRF-R2 receptor complex.; format: functional; details: read-out: IC50_Mean
T3 sequence (Q13324 whole entry): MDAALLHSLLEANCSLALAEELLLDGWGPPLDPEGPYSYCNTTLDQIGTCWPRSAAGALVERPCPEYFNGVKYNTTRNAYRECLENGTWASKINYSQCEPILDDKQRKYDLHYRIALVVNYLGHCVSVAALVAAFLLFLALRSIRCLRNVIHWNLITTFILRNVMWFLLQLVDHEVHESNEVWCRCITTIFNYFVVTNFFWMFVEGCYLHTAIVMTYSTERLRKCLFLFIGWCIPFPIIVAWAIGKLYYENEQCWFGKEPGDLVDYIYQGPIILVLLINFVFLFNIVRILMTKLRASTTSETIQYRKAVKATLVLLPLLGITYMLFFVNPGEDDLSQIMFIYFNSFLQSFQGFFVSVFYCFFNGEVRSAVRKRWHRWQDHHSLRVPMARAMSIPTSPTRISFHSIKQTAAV
T3 sequence (P24387 whole entry): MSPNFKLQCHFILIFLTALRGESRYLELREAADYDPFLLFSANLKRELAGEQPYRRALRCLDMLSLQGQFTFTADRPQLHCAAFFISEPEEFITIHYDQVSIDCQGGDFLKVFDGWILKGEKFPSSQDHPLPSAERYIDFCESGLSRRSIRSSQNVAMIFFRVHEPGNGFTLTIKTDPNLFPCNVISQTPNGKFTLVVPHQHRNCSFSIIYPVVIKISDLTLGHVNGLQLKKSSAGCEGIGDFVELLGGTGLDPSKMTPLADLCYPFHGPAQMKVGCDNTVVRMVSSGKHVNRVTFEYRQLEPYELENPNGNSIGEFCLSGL

[12] = biological target: T3, Corticotropin-releasing factor receptor 2/Corticotropin-releasing factor-binding protein; assay: activators of CRF receptor 2 with binding protein – uHTS hits, confirmation (AID 602473); format: functional; details: read-out: EC50_Mean
[13] = HEK293T cytotoxicity, dose response, cytotoxicity control for miR-122 modulator project, cell-based, inhibitor set, cherry-pick, set 2 (AID 720697); format: functional

Sequence of Glyceraldehyde-3-phosphate dehydrogenase (P04406 whole entry): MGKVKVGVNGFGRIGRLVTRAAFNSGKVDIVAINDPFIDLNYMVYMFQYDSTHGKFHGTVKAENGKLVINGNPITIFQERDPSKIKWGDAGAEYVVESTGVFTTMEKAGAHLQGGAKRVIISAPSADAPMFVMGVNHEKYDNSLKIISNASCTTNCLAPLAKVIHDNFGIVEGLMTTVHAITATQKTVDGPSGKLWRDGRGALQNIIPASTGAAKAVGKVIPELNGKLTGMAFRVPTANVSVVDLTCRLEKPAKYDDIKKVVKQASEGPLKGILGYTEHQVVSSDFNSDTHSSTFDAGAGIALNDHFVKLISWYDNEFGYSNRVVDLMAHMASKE
Sequence of Luciferin 4-monooxygenase (P08659 whole entry): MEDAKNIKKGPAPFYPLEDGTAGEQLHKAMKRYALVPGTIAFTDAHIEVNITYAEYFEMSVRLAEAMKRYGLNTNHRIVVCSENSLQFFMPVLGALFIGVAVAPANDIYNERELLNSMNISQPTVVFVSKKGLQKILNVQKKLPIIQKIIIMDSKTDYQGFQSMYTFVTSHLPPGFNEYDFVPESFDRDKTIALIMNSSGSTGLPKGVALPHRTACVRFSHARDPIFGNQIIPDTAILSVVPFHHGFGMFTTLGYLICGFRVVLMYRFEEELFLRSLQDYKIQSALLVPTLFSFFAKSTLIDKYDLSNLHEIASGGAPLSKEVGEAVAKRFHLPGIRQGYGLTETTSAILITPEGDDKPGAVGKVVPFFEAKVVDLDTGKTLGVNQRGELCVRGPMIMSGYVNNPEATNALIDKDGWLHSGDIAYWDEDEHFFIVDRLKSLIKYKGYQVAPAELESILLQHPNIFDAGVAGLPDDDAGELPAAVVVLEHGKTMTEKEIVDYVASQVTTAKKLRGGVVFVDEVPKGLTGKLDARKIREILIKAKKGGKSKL

COc1cc2c(cc1OC)-c1cc(NC3CCCCCC3)nc(=O)n1CC2
EC50 [1]: > 112 µM (not active)
EC50 [2]: 2.94 µM (active)
IC50 [3]: 12.9 µM (active)

Cc1ccc(C(=O)C(SC(C)(C)C)n2cncn2)cc1 (configuration not stated)
AC50 [4]: 3.99 µM (active)

CCOC(=O)c1ccc(NC(=O)C(=O)NCc2ccco2)cc1
EC50 (BJ [5]): > 150 µM (not active)
EC50 (BJ [6]): > 150 µM (not active)
EC50 (BJ [7]): > 150 µM (not active)
EC50 [8]: > 150 µM (not active)

Cc1ccc(N2C(=O)C(Cl)=C(N3CCN(Cc4ccc5c(c4)OCO5)CC3)C2=O)cc1
IC50 [9]: > 50 µM (inconclusive)

CCN(CC)c1nc2ccccc2c(N)c1-c1ccccc1
EC50 [10]: 2.66 µM (active)

CCOc1ccc2ccccc2c1CNCCc1ccc(S(N)(=O)=O)cc1
EC50 [10]: 4.73 µM (active)

COc1ccccc1/C=C/C(=O)N1CCOCC1
IC50 [11]: > 47.1 µM (inactive)
EC50 [12]: > 53 µM (inactive)

CCc1nnc(NC(=O)CSc2nnnn2-c2cccc(C(C)=O)c2)s1
IC50 [11]: > 47.1 µM (inactive)
EC50 [12]: > 53 µM (inactive)

CNc1nc(NCC2CCCCC2)c2sccc2n1
AC50 [13]: 3.63 µM (active)

CCCC1CC(C#N)N(N(C)C)C1=C(C#N)C#N (configuration not stated)
IC50 [11]: > 47.1 µM (inactive)
EC50 [12]: > 53 µM (inactive)

Cc1ccc(NC(=O)c2ncn(CCCNCC3CCCO3)n2)cc1C (configuration not stated)
IC50 [11]: > 47.1 µM (inactive)
EC50 [12]: > 53 µM (inactive)

COC(=O)C[C@@H]1CC[C@H]2[C@@H](COc3ccc(NC(=O)c4ccc(C(F)(F)F)cc4)cc3C(=O)N2C)O1
AC50 [13]: 10 µM (active)

Cc1cccc(NC(=O)Nc2ccc3c(c2)C(=O)N(C)[C@H]2CC[C@H](CC(=O)O)O[C@H]2CO3)c1
AC50 [13]: 10.6 µM (active)
